Experimental findings from US20250034116A1, “1,4-DIHETEROCYCLIC SUBSTITUTED AROMATIC RING OR AROMATIC HETEROCYCLIC COMPOUND AND USE THEREOF” (BeBetter Med Inc., priority 2022, published 2025) are described below.

Bounds are passed on as bounds.

recombinant CYP4A11 (rCYP4A11), sequence (Q02928 5-519): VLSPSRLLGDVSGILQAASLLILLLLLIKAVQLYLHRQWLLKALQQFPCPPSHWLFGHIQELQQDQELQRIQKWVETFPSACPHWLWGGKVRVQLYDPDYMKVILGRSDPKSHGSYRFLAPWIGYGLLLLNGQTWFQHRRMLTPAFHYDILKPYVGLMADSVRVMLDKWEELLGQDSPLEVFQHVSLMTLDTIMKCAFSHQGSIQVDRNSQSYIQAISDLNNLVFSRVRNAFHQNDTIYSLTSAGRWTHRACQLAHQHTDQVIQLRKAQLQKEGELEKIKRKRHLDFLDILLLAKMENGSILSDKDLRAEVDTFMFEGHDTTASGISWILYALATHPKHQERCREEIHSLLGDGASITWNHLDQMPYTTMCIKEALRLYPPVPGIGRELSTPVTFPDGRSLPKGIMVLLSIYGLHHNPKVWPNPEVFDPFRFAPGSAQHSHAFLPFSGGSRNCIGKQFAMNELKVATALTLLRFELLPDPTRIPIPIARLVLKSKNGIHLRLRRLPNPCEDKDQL

The first data set addresses recombinant CYP4A11 (rCYP4A11) (Homo sapiens (Human), UniProt Q02928). The data set is described as follows: Inhibition of 20-HETE production by recombinant CYP4A11. In kind it is biochemical. To be noted: read-out: rCYP4A11 (% inh @ 100 nM). Here is the method: (§1) Experimental principle: The inhibitory activity of 20-HETE production is evaluated by testing the inhibitory effects of the compound on human liver microsomes (HLM), rat liver microsomes (RLM), mouse liver microsomes (MLM), or […] CYP4 subtype enzymes (CYP4F2). This assay employs HLM, RLM, or MLM along with recombinant CYP4F2 (rCYP4F2) and recombinant CYP4A11 (rCYP4A11), which are […] CYP4 subtype enzymes, to detect the effects of the test compound at different concentrations on the metabolic rate of enzyme-specific substrates, to determine the inhibitory effects of the test compound on CYP enzymes in HLM, RLM, or MLM.
(§2) Experimental methods: Dissolve the test compound in DMSO, and subsequently dilute it with an acetonitrile and DMSO mixture (3:1). Add 2 μl of varying concentrations of the test compound and 100 μl of potassium phosphate buffer containing either liver microsomes or recombinant enzymes to a 96-well plate. After mixing well, transfer 30 μl to another well (in duplicate), add 15 μl of 400 μM substrate solution, and mix well again. Preheat at 37° C. for 10 minutes, and then add 15 μl of 6 mM NADPH and incubate at 37° C. for 25 minutes. After 25 minutes, add 160 μl of acetonitrile solution (containing 0.1 μg/ml internal standard) to stop the reaction. Mix well, centrifuge at 3500 g for 15 minutes, and then analyze the supernatant using LC-MS/MS.
(§3) Plot the compound concentration on the x-axis and the inhibition rate on the y-axis to draw the curve. Use GraphPad Prism 5 software to fit the curve and calculate the IC50. The formula is Y=Bottom+(Top−Bottom)/(1+10^((Log IC50−X)×HillSlope)). X represents the logarithmic concentration of the inhibitor, and Y represents the relative enzyme activity at a given inhibitor concentration (relative to the condition without the inhibitor).
(§4) Calculate the inhibition percentages at concentrations of 1000 nM, 500 nM, or 100 nM as well as the half-maximal inhibitory concentration (IC50) of the test compound from the above experiment.
For `O=C(C1CCCC1)N1CCC(c2ccc(-c3cn[nH]c3)cc2)CC1` [Compound 70, (4-(4-(1H-pyrazol-4-yl)phenyl)piperidin-1-yl)(cyclopentyl) methanone], the inhibition at 0.1 µM came out at 65.5%.

As for `O=C(N1CCCC1)N1CCN(c2ccc(-c3cn[nH]c3)c(F)c2F)CC1` [Compound 72, (4-(2,3-difluoro-4-(1H-pyrazol-4-yl)phenyl)piperazin-1-yl)(pyrrolidin-1-yl) methanone], the inhibition at 0.1 µM came to 50.6%.

`O=C1CCCN1Cc1ccc(C2CCN(c3cn[nH]c3)CC2)cc1` [Reference 83, reference compound]: the inhibition at 0.1 µM is 35.6%.

Another data set deals with CYP enzymes in rat liver microsomes (RLM). The data set is described as follows: Inhibition of 20-HETE production in rat liver microsomes (RLM). Type of data set: biochemical.
Details: not given
An outline of the steps: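 Test compounds were dissolved in DMSO, diluted in acetonitrile/DMSO (3:1), and 2 μl was mixed with 100 μl potassium phosphate buffer containing rat liver microsomes in a 96-well plate. Duplicate 30 μl aliquots received 15 μl of 400 μM substrate, were preheated at 37° C. for 10 minutes, then started with 15 μl of 6 mM NADPH for 25 minutes. LC-MS/MS measured 20-HETE formation.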
One may read the IC50 as the concentration at which inhibition is half-maximal. `O=C(C1CCCC1)N1CCC(c2ccc(-c3cn[nH]c3)cc2)CC1` [Compound 70, (4-(4-(1H-pyrazol-4-yl)phenyl)piperidin-1-yl)(cyclopentyl) methanone]: half-maximal inhibition (IC50) was put at 4.9 nM.

`O=C(N1CCCC1)N1CCN(c2ccc(-c3cn[nH]c3)c(F)c2F)CC1` [Compound 72, (4-(2,3-difluoro-4-(1H-pyrazol-4-yl)phenyl)piperazin-1-yl)(pyrrolidin-1-yl) methanone]: the IC50 was 5.36 nM.

In turn, `O=C1CCCN1Cc1ccc(C2CCN(c3cn[nH]c3)CC2)cc1` [Reference 83, reference compound] displayed an IC50 of 598 nM.

Still in this data set, the particulars now being: 500 nM.
On to `O=C1CCCN1Cc1ccc(C2CCN(c3cn[nH]c3)CC2)cc1` [Reference 83, reference compound], for which the “RLM (% inh @ 500 nM)” value is recorded as 38.16%.

For the next data set, the system named is CYP enzymes in human liver microsomes (HLM). The data set is described as follows: Inhibition of 20-HETE production in human liver microsomes (HLM). Type of data set: biochemical.
Details: not given
An outline of the steps: (§5)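 LC-MS/MS read-out of 20-HETE formation, expressed as activity relative to no-inhibitor control and fitted to a Hill equation for IC50; percent inhibition also given at 1000, 500 or 100 nM. Enzyme sources: recombinant CYP4F2, recombinant CYP4A11, or human or mouse liver microsomes. Each is combined with compound and substrate (400 μM solution) and warmed 10 min at 37 °C, then incubated 25 min at 37 °C after adding NADPH (6 mM solution).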
In general terms: Liver microsomes are vesicles of endoplasmic reticulum, rich in cytochrome P450 enzymes.
`O=C(C1CCCC1)N1CCC(c2ccc(-c3cn[nH]c3)cc2)CC1` [Compound 70, (4-(4-(1H-pyrazol-4-yl)phenyl)piperidin-1-yl)(cyclopentyl) methanone] displayed an IC50 of 19.4 nM.

Compound `O=C(N1CCCC1)N1CCN(c2ccc(-c3cn[nH]c3)c(F)c2F)CC1` [Compound 72, (4-(2,3-difluoro-4-(1H-pyrazol-4-yl)phenyl)piperazin-1-yl)(pyrrolidin-1-yl) methanone] returned an IC50 of 19.1 nM.

In the case of `O=C1CCCN1Cc1ccc(C2CCN(c3cn[nH]c3)CC2)cc1` [Reference 83, reference compound], the IC50 came out at 51.8 nM.

The data set is the same for the next values; noted with them: 500 nM.
In the case of `O=C(C1CCCC1)N1CCC(c2ccc(-c3cn[nH]c3)cc2)CC1` [Compound 70, (4-(4-(1H-pyrazol-4-yl)phenyl)piperidin-1-yl)(cyclopentyl) methanone], the “HLM (% inh @ 500 nM)” value is 89.89%.

As to `O=C(N1CCCC1)N1CCN(c2ccc(-c3cn[nH]c3)c(F)c2F)CC1` [Compound 72, (4-(2,3-difluoro-4-(1H-pyrazol-4-yl)phenyl)piperazin-1-yl)(pyrrolidin-1-yl) methanone], the “HLM (% inh @ 500 nM)” value amounted to 89.73%.

As to `O=C1CCCN1Cc1ccc(C2CCN(c3cn[nH]c3)CC2)cc1` [Reference 83, reference compound], the “HLM (% inh @ 500 nM)” value is on record as 79.09%.

Tested on in another data set: not listed separately
The data set is described as follows: Pharmacokinetic (PK) experiment, oral administration in rats. In kind it is in vivo, Male SD rats. The note with it: 20 mg/kg. An outline of the steps: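 Fasted male SD rats (180-250 g) received 20 mg/kg orally in 30% sulfobutylether-β-cyclodextrin. Tail-vein blood sampled 15 min to 24 h post-dose into K2-EDTA; plasma protein-precipitated with acetonitrile containing internal standard and analysed by LC-MS/MS.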
With `O=C(C1CCCC1)N1CCC(c2ccc(-c3cn[nH]c3)cc2)CC1` [Compound 70, (4-(4-(1H-pyrazol-4-yl)phenyl)piperidin-1-yl)(cyclopentyl) methanone], the “absorption and blood exposure after oral administration (in words)” value was “well absorbed and exhibit high blood exposure”.

Turning to `O=C(N1CCCC1)N1CCN(c2ccc(-c3cn[nH]c3)c(F)c2F)CC1` [Compound 72, (4-(2,3-difluoro-4-(1H-pyrazol-4-yl)phenyl)piperazin-1-yl)(pyrrolidin-1-yl) methanone], the “absorption and blood exposure after oral administration (in words)” value is “well absorbed and exhibit high blood exposure”.

The same data set, now with this note: male, SD, rat, plasma, 20 mg/kg.
The term AUC(0-inf) denotes total exposure, with the tail of the curve extrapolated. As a reminder, the Cmax is the highest concentration seen after dosing. What is called Tmax is the time at which the peak concentration occurs. Broadly, the half-life is the time needed for the level to fall by half in the phase considered. The low end stands for fast loss, the high end for slow loss. `O=C(C1CCCC1)N1CCC(c2ccc(-c3cn[nH]c3)cc2)CC1` [Compound 70, (4-(4-(1H-pyrazol-4-yl)phenyl)piperidin-1-yl)(cyclopentyl) methanone]: the AUC(0-inf) turned out to be 69000 ng·h/mL, the Cmax was found to be 7320 ng/mL, the Tmax is 3 h and the half-life is 2.57 h.

Turning to `O=C(N1CCCC1)N1CCN(c2ccc(-c3cn[nH]c3)c(F)c2F)CC1` [Compound 72, (4-(2,3-difluoro-4-(1H-pyrazol-4-yl)phenyl)piperazin-1-yl)(pyrrolidin-1-yl) methanone], the AUC(0-inf) is 86000 ng·h/mL, the Cmax was 7880 ng/mL, the Tmax amounted to 2.33 h and the half-life was 2.51 h.

Consider `O=C1CCCN1Cc1ccc(C2CCN(c3cn[nH]c3)CC2)cc1` [Reference 83, reference compound], for which the AUC(0-inf) stood at 2640 ng·h/mL, the Cmax was 562 ng/mL, the Tmax is 1.5 h and the half-life is 3.53 h.

Still in this data set, the particulars now being: male, SD, rat, plasma, 20 mg/kg, read-out: AUC0-24.
With `O=C(C1CCCC1)N1CCC(c2ccc(-c3cn[nH]c3)cc2)CC1` [Compound 70, (4-(4-(1H-pyrazol-4-yl)phenyl)piperidin-1-yl)(cyclopentyl) methanone], the AUC(0-t) turned out to be 68800 ng·h/mL.

Consider `O=C(N1CCCC1)N1CCN(c2ccc(-c3cn[nH]c3)c(F)c2F)CC1` [Compound 72, (4-(2,3-difluoro-4-(1H-pyrazol-4-yl)phenyl)piperazin-1-yl)(pyrrolidin-1-yl) methanone], for which the AUC(0-t) turned out to be 85800 ng·h/mL.

For the compound `O=C1CCCN1Cc1ccc(C2CCN(c3cn[nH]c3)CC2)cc1` [Reference 83, reference compound], the AUC(0-t) came to 2630 ng·h/mL.

Another data set deals with recombinant CYP4F2 (rCYP4F2) (Homo sapiens (Human), UniProt P78329). The data set is described as follows: Inhibition of 20-HETE production by recombinant CYP4F2. In kind it is biochemical. The note with it: read-out: rCYP4F2 (% inh @ 100 nM). As for the experimental part: as §1, §2, §3, §4
recombinant CYP4F2 (rCYP4F2), sequence (P78329 5-520): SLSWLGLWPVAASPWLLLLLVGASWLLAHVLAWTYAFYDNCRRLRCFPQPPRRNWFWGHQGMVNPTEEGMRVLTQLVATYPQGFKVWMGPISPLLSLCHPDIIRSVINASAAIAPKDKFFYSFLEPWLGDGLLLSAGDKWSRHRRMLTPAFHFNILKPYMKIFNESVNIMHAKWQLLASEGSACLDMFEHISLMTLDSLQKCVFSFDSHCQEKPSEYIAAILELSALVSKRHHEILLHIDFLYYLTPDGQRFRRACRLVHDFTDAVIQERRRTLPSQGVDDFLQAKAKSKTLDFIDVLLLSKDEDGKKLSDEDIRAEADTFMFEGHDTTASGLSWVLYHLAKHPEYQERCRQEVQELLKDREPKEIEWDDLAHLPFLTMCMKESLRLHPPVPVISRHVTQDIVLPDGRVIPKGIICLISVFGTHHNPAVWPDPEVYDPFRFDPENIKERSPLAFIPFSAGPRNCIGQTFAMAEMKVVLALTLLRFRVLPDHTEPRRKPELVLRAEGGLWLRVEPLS
For the compound `O=C(C1CCCC1)N1CCC(c2ccc(-c3cn[nH]c3)cc2)CC1` [Compound 70, (4-(4-(1H-pyrazol-4-yl)phenyl)piperidin-1-yl)(cyclopentyl) methanone], the inhibition at 0.1 µM turned out to be 79.2%.

With `O=C(N1CCCC1)N1CCN(c2ccc(-c3cn[nH]c3)c(F)c2F)CC1` [Compound 72, (4-(2,3-difluoro-4-(1H-pyrazol-4-yl)phenyl)piperazin-1-yl)(pyrrolidin-1-yl) methanone], the inhibition at 0.1 µM was found to be 70.1%.

For `O=C1CCCN1Cc1ccc(C2CCN(c3cn[nH]c3)CC2)cc1` [Reference 83, reference compound], the inhibition at 0.1 µM was 54.6%.

The test system of the next data set is CYP enzymes in mouse liver microsomes (MLM). The experiment in a line: Inhibition of 20-HETE production in mouse liver microsomes (MLM).
Details: not given
In kind it is biochemical. An outline of the steps: as §5
In the case of `O=C(C1CCCC1)N1CCC(c2ccc(-c3cn[nH]c3)cc2)CC1` [Compound 70, (4-(4-(1H-pyrazol-4-yl)phenyl)piperidin-1-yl)(cyclopentyl) methanone], it took 135 nM to reach half-maximal inhibition (IC50).

In turn, `O=C(N1CCCC1)N1CCN(c2ccc(-c3cn[nH]c3)c(F)c2F)CC1` [Compound 72, (4-(2,3-difluoro-4-(1H-pyrazol-4-yl)phenyl)piperazin-1-yl)(pyrrolidin-1-yl) methanone] had an IC50 of 1330 nM.

The compound `O=C1CCCN1Cc1ccc(C2CCN(c3cn[nH]c3)CC2)cc1` [Reference 83, reference compound] had an IC50 above 10000 nM.

The test system of the next data set is diet-induced obesity (DIO) mouse model. The experiment in a line: Experiment 4: weight loss of compound 2 compared with semaglutide in DIO mouse model. To be noted: 30 nmol/kg subcutaneously once daily, after 2 weeks. Type of data set: in vivo, Male C57BL/6J mice. The source says:
Experiment 4 was to compare the weight loss effects of compound 2 with that of semaglutide in a diet-induced obesity (DIO) mouse model. Male C57BL/6J mice were purchased from Vital River Laboratories (Shanghai) Co., Ltd. and housed in a barrier system animal facility. Animals were randomly divided into 4 groups: normal control group, DIO model control group, compound 2 treatment group, and semaglutide treatment group, with 6 animals per group. The model control group and treatment groups were first fed with high-fat diet (HFD) for 18 weeks, after which the treatment groups were administered with compound 2 or semaglutide, respectively. Compound 2 was administered orally at a dose of 30 mg/kg once daily for 14 consecutive weeks, while semaglutide was administered subcutaneously at a dose of 30 nmol/kg once daily. After 7 weeks of semaglutide treatment, the semaglutide treatment group was switched to compound 2 treatment for another 7 weeks.
semaglutide [reference compound]: the “maximum weight-loss effect, decrease compared to the pre-treatment weight” value is given as “approximately 20%”.

Staying with this data set, now noted: 30 nmol/kg subcutaneously once daily, first 2 weeks.
As for semaglutide [reference compound], the “food intake, fraction of the model control group” value was “⅓ to ½”.
